Assay results taken from patent US6630347B1, “Endothelial NOS transgenic animals and methods of use” (The General Hospital Corporation, priority 1996, dated 2003).
Where a name gives a salt, the structure may show the parent alone. Marks after values point to notes of the source that are not given here. Each block holds one molecule with its values, some of them ahead of it.

Legend:
[1] = Babbedge et al. (1993); cited from earlier work
NOS binding sites = assay: [3H]L-NG-nitro-arginine autoradiographic binding assay in brain sections; set-up: species or system mouse; conditions: for L-NA displaceable [3H]L-NA binding in the presence of 7-NI: 100 μM 7-NI; for L-NA displaceable [3H]L-NA binding in the presence of D-NA: 10 μM D-NA
Protocol: Mice and rats were sacrificed by decapitation under 2% halothane anesthesia (30% O2+70% N2O). The brains were rapidly removed, immediately frozen in powdered dry ice, and stored at −70° C. Twelve μm sagittal or coronal sections were cut in a cryostat-microtome at −18° C. (Leitz 1720, Leica, Deerfield, Ill., U.S.A.) and thaw-mounted onto gelatin-coated slides (1% gelatin and 0.1% KCr2O). Adjacent sections were stained with cresyl violet and hematoxylin eosin, and stored at −70° C.
The method for the autoradiographic visualization of NOS binding using [^3H]L-NG-Nitro-arginine ([^3H]L-NA) has been described previously. Rutherford et al., (1995). Prior to experiments, sections were brought to −20° C. and then to room temperature. Sections were preincubated for 15 min at room temperature in 50 mM Tris-HCl (pH 7.3) to remove the endogenous ligands and/or modulators, then incubated for 30 min at room temperature in 50 mM Tris-HCl buffer containing 10 μM CaCl2 and 25 nM N^G-nitro-L-[2,3,4,5-H]arginine hydrochloride ([^3H]L-NA, specific activity: 48-57 Ci/mmol, Amersham, Arlington Heights, Ill., U.S.A.). Unlabelled L-N^G-nitro-arginiine (L-NA, Sigma, St. Louis, Mo., U.S.A.), D-N^G-nitro-arginine (D-NA, RBI, Natick, Mass., U.S.A.) and 7-nitroindazole (7-NI, Cookson Chemicals Ltd., England) was added at concentrations of 10, 10, and 100 μM, respectively. The sections were then washed twice for 5 min in ice-cold buffer and rinsed for 10 sec in ice-cold distilled water to eliminate residual buffer. After drying with cold air, the slides were tightly apposed to ^3H-Hyperfilm (Amersham) together with tritiated polymer standards (Amersham) and exposed at −4° C. for 6 weeks.
Films were developed in Kodak D-19 and fixed in Kodak Rapid Fixer, according to the manufacturer's instructions. The optical density of the regions of interest was measured by a computer-assisted image analysis (System M4, Imaging Research, St. Catharines, Ontario, Canada). The relationship between optical density and radioactivity was examined with reference to the tritium standards (Amersham, [^3H]microscale) co-exposed with the tissue sections. […] The densities of NOS binding sites are expressed in fmol bound [^3H]L-NA/mg tissue using the [^3H]L-NA concentration of 25 nM.

[2] = Blood pressure responses to L-NA (femoral artery catheterization); type: in vivo, mice
Protocol: Mice were kept at normal temperature (37° C.), anesthetized with urethane ([…], intraperitoneal injection) or halothane inhalation, and ventilated using an SAR-830 mouse ventilator (CWE Instruments). Depth of anesthesia was adjusted to keep the blood pressure of animals unresponsive to tail-pinch with forceps. End-tidal CO2 was monitored with a microcapnometer and kept constant by adjustment of respiratory parameters. The right femoral artery was cannulated using stretched PE-10 polyethylene tubing (Clay Adams) for mean arterial blood pressure recordings using an ETH-400 transducer and a MacLab data acquisition system (ADI Instruments). For awake measurements, the femoral artery catheter was placed under halothane anesthesia and the wound was covered with 1% xylocane ointment to diminish discomfort. Recordings were made within one hour of the procedure. Data are expressed as means with standard deviation. Statistical evaluation was performed by t-test.
Mean arterial blood pressure (MABP) of urethane-anesthetized wild-type (solid line in FIG. 5) and eNOS mutant mice (dotted line in FIG. 5) were measured by femoral artery catheterization and recorded for 30 minutes of baseline before L-NA administration (arrows in FIG. 5). At time 0, 12 mg/kg of L-NA was given intraperitoneally. […] The blood pressure of eNOS mutant mice dropped from a baseline of 98 mm Hg to 66 mm Hg (n=5). […]

pial arterioles = assay: Pial arteriole diameter during superfusion in closed cranial window; type: in vivo, mice
Description: The mouse head was fixed in a stereotaxic frame and the skull exposed by a longitudinal skin incision. A stainless steel cranial window ring (8.0 mm in inner diameter, 2.0 mm in height) containing three ports was imbedded into a loop of bone wax over the skull. Dental acrylic was then applied. A craniotomy (2×1.5 mm) was made in the left parietal bone within the ring of the window. After dura was opened and the brain surface superfused with artificial cerebrospinal fluid (aCSF), a cover glass was placed to close the window. The volume under the window was approximately 0.1 ml. The composition of aCSF was as follows (in mMol/L): […] The aCSF was superfused by an infusion pump (0.4 ml/min) via a PE-100 tubing connected to a window port. Intracranial pressure was maintained at 5-8 mm Hg. The temperature of aCSF within the windows was maintained at 36.5-37.0° C. Pial vessels were visualized through a cranial window by an intravital microscope (Leitz, Germany) equipped with a video camera ([…], Hamamatsu Photonics, Hamamatsu, Japan). The diameter of a single pial arteriole (20-30 μm) was continuously measured by a video width analyzer ([…], Hamamatsu, Japan) and recorded using the MacLab data acquisition and analysis system. After baseline stabilization, nitro-L-arginine or nitro-D-arginine solution (1 mM) was superfused into the window and the diameter of pial arteriole measured continuously 40 min thereafter.

[3] = Cerebral infarct size 24 hrs after middle cerebral artery (MCA) occlusion; type: in vivo, mice
Description: Male and female wild-type (SV-129 and C57 Black/6, Taconic Farms, Germantown, N.Y.) and eNOS mutant mice weighing 20 to 26 g were housed under diurnal lighting conditions and allowed free access to food and water ad libitum.
Mice were anesthetized with 2% halothane for induction and maintained on 1% halothane in 70/30% nitrous oxide/oxygen by mask. The right femoral artery was cannulated with PE-10 polyethylene tubing for arterial blood pressure measurement (Gould, Oxnard, Calif.) and blood gas determination (Corning 178, Ciba Corning Diag., Medford, Mass.). Rectal temperature was maintained between 36.5-37.5° C. with a homeothermic blanket system (YSI, Yellow Springs, Ohio).
Focal cerebral ischemia was induced by occlusion of middle cerebral artery (MCA) using the intraluminal filament technique. […] Through a ventral midline incision, the right common and external arteries were isolated and ligated. A microvascular clip (Zen temporary clip, Ohwa Tsusho, Tokyo, Japan) was temporarily placed on the internal artery and the pterygopalatine artery. An 8-0 nylon monofilament (Ethicon, Somerville, N.J.) coated with silicone was introduced through a small incision in the common corotid artery and advanced 10 mm distal to the carotid bifurcation so as to occlude the MCA and posterior communicating artery. The wound was sutured and the animal returned to its cage and allowed free access to water and food.
Twenty-four hours later, animals were sacrificed with an overdoses of pentobarbital and the brains removed and sectioned coronally into five 2-mm slices in a mouse brain matrix. Slices were placed in 2% TTC solution, followed by 10% formalin overnight. […] The infarction area, outlined in white, was measured (Bioquant IV image analysis system) on the posterior surface of each section, and the infarction volume was calculated by summing the infarct volumes of sequential 2 mm thick sections. […]

aortic rings = assay: Endothelium-dependent relaxation of aortic rings in response to acetylcholine; set-up: species or system mice
Description: The rings were pre-contracted with 10^−7 M norepinephrine and exposed to increasing concentrations of acetylcholine (ACh) from 10^−8 M to 3×10^−5 M. 2-3 segments were collected from each mouse, and five mice were used from the wild-type and eNOS mutant groups. Mean data from each animal were used. Respective tracings are shown. Acetylcholine concentrations are expressed in logM.

[4] = Physiological data (blood gases, MABP) before MCA occlusion and after ischemia; type: in vivo, mice
Protocol: The right femoral artery was cannulated with PE-10 polyethylene tubing for arterial blood pressure measurement (Gould, Oxnard, Calif.) and blood gas determination (Corning 178, Ciba Corning Diag., Medford, Mass.). Rectal temperature was maintained between 36.5-37.5° C. with a homeothermic blanket system (YSI, Yellow Springs, Ohio). […] The investigator was blinded to the treatment group in this protocol.

[5] = eNOS mutant mice; 250 μg/ml in drinking water, daily dose about 750 μg; decrease from 102 mm Hg
Protocol: The effect of hypertension in vascular injury responses (both filament and cuff models) is measured by repeating the experiments after treating eNOS mutant mice with hydralazine to reduce their blood pressure to normotensive levels.

[6] = Amygdaloid complex, nNOS mutant
[7] = Cerebellum (molecular layer), SV-129
[8] = Cerebellum (molecular layer), nNOS mutant
[9] = Hippocampal CA3 subfield, SV-129
[10] = Hippocampal CA3 subfield, nNOS mutant

L-NA displaceable [3H]L-NA binding in the presence of D-NA (NOS binding sites; Amygdaloid complex, SV-129): 64 ± 7.6 fmol/mg tissue
L-NA displaceable [3H]L-NA binding in the presence of D-NA (NOS binding sites; [6]): 3 ± 1.7*^,# fmol/mg tissue
L-NA displaceable [3H]L-NA binding in the presence of D-NA (NOS binding sites; [7]): 59 ± 6.7 fmol/mg tissue
L-NA displaceable [3H]L-NA binding in the presence of D-NA (NOS binding sites; [8]): 0 ± 3.6*^,# fmol/mg tissue
L-NA displaceable [3H]L-NA binding in the presence of D-NA (NOS binding sites; Dentate gyrus, SV-129): 43 ± 4.8 fmol/mg tissue
L-NA displaceable [3H]L-NA binding in the presence of D-NA (NOS binding sites; Dentate gyrus, nNOS mutant): 2 ± 1.9*^,# fmol/mg tissue
L-NA displaceable [3H]L-NA binding in the presence of D-NA (NOS binding sites; [9]): 66 ± 5.9 fmol/mg tissue
L-NA displaceable [3H]L-NA binding in the presence of D-NA (NOS binding sites; [10]): 3 ± 1.9*^,# fmol/mg tissue
L-NA displaceable [3H]L-NA binding in the presence of D-NA (NOS binding sites; Olfactory bulb (granular layer), SV-129): 92 ± 10.8 fmol/mg tissue
L-NA displaceable [3H]L-NA binding in the presence of D-NA (NOS binding sites; Olfactory bulb (granular layer), nNOS mutant): 5 ± 3.0*^,# fmol/mg tissue
SMILES: NC(=N[N+](=O)[O-])NCCCC(N)C(=O)O [D-NA, D-N^G-nitro-arginine]
blood pressure effects as seen with L-NA ([2]; wild-type and eNOS mutant mice, 12 mg/kg): not seen
change in pial diameter (pial arterioles; eNOS mutant mice, 1 mM superfusion): No change

density of [3H]L-NA binding sites in the presence of L-NA (NOS binding sites; 10 μM, all brain regions of all mouse strains): very low
SMILES: NC(=N[N+](=O)[O-])NCCCC(N)C(=O)O [L-NA, L-nitroarginine]
change of lesion size after MCA occlusion ([3]; protocol 2, wild-type mice): did not change
acetylcholine-induced relaxation after L-NA treatment (aortic rings; wild-type vessel rings, 10^-4 M L-NA for 1 hour): abolished
change in MABP during superfusion (pial arterioles; 1 mM superfusion): no change
pial vessel diameter (pial arterioles; eNOS mutant mice, 1 mM superfusion for 40 min): increased

More lines, now with the values behind:

SMILES: O=[N+]([O-])c1cccc2cn[nH]c12 [7-NI, 7-nitroindazole]
effect on blood pressure [1]: does not increase blood pressure
[3H]L-NA binding in the presence of 7-NI (NOS binding sites; 100 μM, all regions measured, wild-type and eNOS mutant mice): significantly decreased
L-NA displaceable [3H]L-NA binding in the presence of 7-NI (NOS binding sites; Amygdaloid complex, C57black/6): 21 ± 4.8 fmol/mg tissue
L-NA displaceable [3H]L-NA binding in the presence of 7-NI (NOS binding sites; Amygdaloid complex, SV-129): 21 ± 2.1 fmol/mg tissue
L-NA displaceable [3H]L-NA binding in the presence of 7-NI (NOS binding sites; Amygdaloid complex, eNOS mutant): 21 ± 2.9 fmol/mg tissue
L-NA displaceable [3H]L-NA binding in the presence of 7-NI (NOS binding sites; [6]): 23 ± 2.5 fmol/mg tissue
L-NA displaceable [3H]L-NA binding in the presence of 7-NI (NOS binding sites; Cerebellum (molecular layer), C57black/6): 23 ± 5.4 fmol/mg tissue
L-NA displaceable [3H]L-NA binding in the presence of 7-NI (NOS binding sites; [7]): 18 ± 1.3 fmol/mg tissue
L-NA displaceable [3H]L-NA binding in the presence of 7-NI (NOS binding sites; Cerebellum (molecular layer), eNOS mutant): 20 ± 2.2 fmol/mg tissue
L-NA displaceable [3H]L-NA binding in the presence of 7-NI (NOS binding sites; [8]): 24 ± 1.0 fmol/mg tissue
L-NA displaceable [3H]L-NA binding in the presence of 7-NI (NOS binding sites; Dentate gyrus, C57black/6): 22 ± 4.6 fmol/mg tissue
L-NA displaceable [3H]L-NA binding in the presence of 7-NI (NOS binding sites; Dentate gyrus, SV-129): 18 ± 0.7 fmol/mg tissue
L-NA displaceable [3H]L-NA binding in the presence of 7-NI (NOS binding sites; Dentate gyrus, eNOS mutant): 20 ± 2.7 fmol/mg tissue
L-NA displaceable [3H]L-NA binding in the presence of 7-NI (NOS binding sites; Dentate gyrus, nNOS mutant): 22 ± 1.7 fmol/mg tissue
L-NA displaceable [3H]L-NA binding in the presence of 7-NI (NOS binding sites; Hippocampal CA3 subfield, C57black/6): 22 ± 4.7 fmol/mg tissue
L-NA displaceable [3H]L-NA binding in the presence of 7-NI (NOS binding sites; [9]): 18 ± 1.8 fmol/mg tissue
L-NA displaceable [3H]L-NA binding in the presence of 7-NI (NOS binding sites; Hippocampal CA3 subfield, eNOS mutant): 21 ± 1.8 fmol/mg tissue
L-NA displaceable [3H]L-NA binding in the presence of 7-NI (NOS binding sites; [10]): 23 ± 2.3 fmol/mg tissue
L-NA displaceable [3H]L-NA binding in the presence of 7-NI (NOS binding sites; Olfactory bulb (glanular layer), C57black/6): 28 ± 4.1 fmol/mg tissue
L-NA displaceable [3H]L-NA binding in the presence of 7-NI (NOS binding sites; Olfactory bulb (glanular layer), SV-129): 17 ± 0.7 fmol/mg tissue
L-NA displaceable [3H]L-NA binding in the presence of 7-NI (NOS binding sites; Olfactory bulb (glanular layer), nNOS mutant): 30 ± 2.7 fmol/mg tissue

SMILES: N=C(N)NCCC[C@H](N)C(=O)O [L-arginine]
effect on the blood pressure responses to L-NA ([2]; 200 mg/kg, intraperitoneal): prevented

SMILES: CC(=O)OCC[N+](C)(C)C [acetylcholine]
pre-addition tone present after acetylcholine (aortic rings; wild-type aortic segments pre-contracted with 10^-7 M norepinephrine, acetylcholine 3×10^-5 M): 60.3±14.6%

SMILES: NNc1nncc2ccccc12 [hydralazine, hydralazine hydrochloride]
change of infarct size ([3]; eNOS mutants made normotensive by hydralazine): did not change
infarct volume ([3]; protocol 1, eNOS mutant mice made normotensive by hydralazine 1 mg/kg ip 1 hr before and 5, 17 hrs after MCA occlusion, n=10): 48±7 % of hemisphere
MABP difference between groups after hydralazine administration ([4]; eNOS mutant mice given hydralazine vs wild-type mice): did not differ
MABP before ([4]; protocol 1, eNOS mutant, hydralazine, 10 min before MCA occlusion): 102 ± 6 mmHg
MABP after ([4]; protocol 1, eNOS mutant, hydralazine, 24 hrs after ischemia): 102 mmHg
mean arterial pressure after hydralazine [5]: 72 mm Hg
